Measured values from patent US12583859B2, “PRMT5 inhibitors and uses thereof” (California Institute of Technology, priority 2019, dated 2026).

What was measured:
[1] = tested on: drug-sensitive cell lines of Table 4; assay: Cell Line Growth Retardation Assay, average maximum effect in sensitive cohort; assay type: cell-based, Human; details: average maximum growth inhibition over sensitive cohort of Table 4; 6 days; up to 1 μM
Experimental: (§1) Cells were seeded at densities of 1,000-5,000 cells per well in 48-well tissue culture plates. After a 24 h rest period, cells were treated with compound at 1 μM, 0.2 μM, 0.04 μM, 0.008 μM, 0.0016 μM, and 0.00032 μM. A group of cells were treated with the vehicle in which the compound was prepared and served as a control. Prior to treatment, cells were counted and this count was used as a baseline for the calculation of growth inhibition. The cells were grown in the presence of compounds for 6 days and were counted on day 6. All cell counting was performed using a Synentec Cellavista plate imager. Growth inhibition was calculated as a ratio of cell population doublings in the presence of compound versus the absence of compound and expressed as the maximum percentage growth inhibition achieved across the range of tested concentrations of the compound (“maximum effect” or “ME”) calculated by fitting curves to data points from each dose-response assay using the Proc NLIN function in SAS for Windows version 9.2 (SAS Institute, Inc.).
(§2) Human cancer cell lines were grouped as “sensitive” or “resistant” to PRMT5 inhibition based on whether their growth was retarded by JNJ-64619178 (i.e., (1S,2R,3R,5R)-3-(2-(2-amino-3-bromoquinolin-7-yl)ethyl)-5-(4-amino-7H-pyrrolo[2,3-d]pyrimidin-7-yl)cyclopentane-1,2-diol) (data not shown; see Table 4). These sensitive and resistant cohorts were interrogated for response to each compound, and ME was calculated for each cell line using the same technique described above. Average MEs for the sensitive and resistant cohorts were calculated as arithmetic means of the group. “A” represents a percent of maximum effect of 60% or greater, “B” represents a percent of maximum effect of 30% to 59%, and “C” represents a percent of maximum effect of 29% or lower.

PRMT5 = target: T1, PRMT5 (Homo sapiens, UniProt O14744); assay: PRMT5 Enzymatic Inhibition Assay (chemiluminescence immunoassay of histone H4 methylation); assay type: biochemical; details: 1 hour at room temperature; 10 μM to 1 nM
T1 construct: purchased BPS Biosciences 52002L
Experimental: A chemiluminescence immunoassay (CLIA) measuring the amount of PRMT5-mediated histone methylation was performed in a 96-well plate format according to the manufacturer's protocol (BPS Biosciences, Cat #52002L). A 96-well plate precoated with histone H4 peptide was rehydrated prior to use. A master mix containing PRMT5 substrate S-adenosylmethionine, reaction buffer, and purified PRMT5 enzyme was added to create reaction-competent wells. Wells lacking either S-adenosylmethionine substrate or PRMT5 enzyme were created as negative controls. 10 test concentrations, ranging from 100 μM to 10 nM, of the test compound were prepared using a 1:3 serial dilution in dH2O. 5 μL of each test concentration was added into a reaction-competent well. 5 μL of a 1% DMSO aqueous solution lacking inhibitor was added into negative control wells and into a reaction-competent well, creating a positive control well. The final reaction volume in each well was 50 μL, and the final concentration of the test compound in each well ranged from 10 μM to 1 nM. A known inhibitor of PRMT5, EPZ015666, was tested in parallel reaction wells as an assay validation control. The 96-well plate was incubated for 1 hour at room temperature.
Upon completion of the incubation, the reaction supernatant in each well was discarded. Wells were washed with 1×TBST and incubated in blocking buffer for 1 hour. The wells were incubated with a primary antibody recognizing methylated Arg3 residues on Histone H4 for 1 hour. The wells were washed with 1×TBST again and subsequently incubated with an HRP-conjugated secondary antibody for 30 minutes. The wells were washed again with 1×TBST, and equal parts of the chemiluminescence reagents were added into each well. Quantification of luminescence was measured in a plate reader.
Luminescence values were normalized against the positive and negative controls to convert the data into % PRMT5 activity. An inhibitor concentration-dependent curve was plotted against % PRMT5 activity and am IC50 value was determined for each compound.

[2] = tested on: drug-resistant cell lines of Table 4; assay: Cell Line Growth Retardation Assay, average maximum effect in resistant cohort; assay type: cell-based, Human; details: average maximum growth inhibition over resistant cohort of Table 4; 6 days; up to 1 μM
Experimental: as §1, §2

[3] = Measurement of Compound Metabolic Stability in hepatocytes; assay type: in vitro ADME; details: mouse hepatocytes; for hepatocyte CLint at 1 μM: read-out: CLint (μL/min/10^6)
Experimental: The metabolic stability of compounds was determined in hepatocytes from human, mice and rats. Compounds were diluted to 5 μM in Williams' Medium E from 10 mM stock solutions. 10 μL of each compound was aliquoted into a well of a 96-well plate and reactions were started by aliquoting 40 μL of a 625,000 cells/mL suspension into each well. The plate was incubated at 37° C. with 5% CO2. At each corresponding time point, the reaction was stopped by quenching with ACN containing internal standards (IS) at a 1:3. Plates were shaken at 500 rpm for 10 min, and then centrifuged at 3,220×g for 20 minutes. Supernatants were transferred to another 96-well plate containing a dilution solution. Supernatants were analyzed by LC/MS/MS. The Half-lives (in minutes) and CLint values (in μL/min/10^6 cells) of example compounds, as measured in mouse hepatocytes, are presented in Table 3. […] For CLint, “A” represents greater than 100 μL/min/10^6 cells, “B” represents 50 to 100 μL/min/10^6 cells, and “C” represents less than 50 μL/min/10^6 cells.
The remaining percent of compound after incubation was calculated using the following equation: % Remaining Compound=Peak Area Ratios of Tested Compound vs. Internal Standard at End Point • Peak Area Ratios of Tested Compound vs. Internal Standard at Start Point Compound half-life and CLint were calculated using the following equations: Ct=C0*e^−k*t(first order kinetics); when […], t1/2=ln 2/k=0.693/k; and CLint=k/(1,000,000 cells/mL) Activity-Guided Selection of Inhibitors

T1 sequence (O14744 2-637 limits assumed): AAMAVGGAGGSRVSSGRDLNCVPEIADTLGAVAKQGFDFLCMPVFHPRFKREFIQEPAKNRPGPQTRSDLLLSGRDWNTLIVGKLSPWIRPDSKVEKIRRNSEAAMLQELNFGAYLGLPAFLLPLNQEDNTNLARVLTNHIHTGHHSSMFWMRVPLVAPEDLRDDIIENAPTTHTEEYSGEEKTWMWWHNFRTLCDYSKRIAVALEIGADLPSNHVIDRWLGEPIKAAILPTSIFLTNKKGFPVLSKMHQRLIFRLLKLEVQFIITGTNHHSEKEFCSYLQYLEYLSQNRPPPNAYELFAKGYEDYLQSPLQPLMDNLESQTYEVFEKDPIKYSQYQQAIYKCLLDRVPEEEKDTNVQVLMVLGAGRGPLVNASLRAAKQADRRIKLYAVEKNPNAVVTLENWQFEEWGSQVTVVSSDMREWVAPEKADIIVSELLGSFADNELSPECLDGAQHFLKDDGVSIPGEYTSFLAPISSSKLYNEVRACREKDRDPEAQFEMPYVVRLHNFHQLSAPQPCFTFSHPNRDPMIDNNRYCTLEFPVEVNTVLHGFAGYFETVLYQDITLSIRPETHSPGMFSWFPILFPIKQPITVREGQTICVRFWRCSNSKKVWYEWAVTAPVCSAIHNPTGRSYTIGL
T1 sequence (Q9BQA1 2-342 partner limits assumed): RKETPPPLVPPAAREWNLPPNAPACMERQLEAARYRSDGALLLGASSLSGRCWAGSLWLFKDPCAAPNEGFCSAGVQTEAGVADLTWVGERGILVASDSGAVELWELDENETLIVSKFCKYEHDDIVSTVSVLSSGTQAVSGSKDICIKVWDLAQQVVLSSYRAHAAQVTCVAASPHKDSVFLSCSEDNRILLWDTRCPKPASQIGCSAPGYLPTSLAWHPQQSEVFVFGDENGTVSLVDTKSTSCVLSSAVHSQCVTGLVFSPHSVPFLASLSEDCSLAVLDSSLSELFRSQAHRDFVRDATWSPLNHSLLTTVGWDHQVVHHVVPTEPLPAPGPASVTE

IC50 (PRMT5) [nM] | half-life at 1 μM [3] [min] | hepatocyte CLint at 1 μM [3] [µL/min/1e6 cells] | Compound | AvgSens ME (%) [1] | AvgRes ME (%) [2]
> 500 |  |  | Nc1ncnc2c1ccn2[C@@H]1C[C@@]2(CNC(c3ccc4cc(Br)c(Cl)nc4c3)C2)[C@@H](O)[C@H]1O (single isomer, unassigned) [Compound 3] | C (a percent of maximum effect of 29% or lower) | C (a percent of maximum effect of 29% or lower)
101 to 500 |  |  | CN1C[C@]2(CC1c1ccc3cc(Br)c(N)nc3c1)C[C@@H](n1ccc3c(N)ncnc31)[C@H](O)[C@@H]2O (single isomer, unassigned) [Compound 5] | C (a percent of maximum effect of 29% or lower) | C (a percent of maximum effect of 29% or lower)
≤ 100 |  |  | Nc1nc2cc(C3C[C@@]4(CO3)C[C@@H](n3ccc5c(N)ncnc53)[C@H](O)[C@@H]4O)ccc2cc1Br (single isomer, unassigned) [Compound 16] | A (a percent of maximum effect of 60% or greater) | B (a percent of maximum effect of 30% to 59%)
101 to 500 |  |  | Nc1ncnc2c1ccn2[C@@H]1C[C@@]2(CNC(c3ccc4cc(Br)c(Cl)nc4c3)C2)[C@@H](O)[C@H]1O (single isomer, unassigned) [Compound 4] | C (a percent of maximum effect of 29% or lower) | C (a percent of maximum effect of 29% or lower)
101 to 500 |  |  | Nc1nc2cc(C3C[C@@]4(CN3)C[C@@H](n3ccc5c(Cl)ncnc53)[C@H](O)[C@@H]4O)ccc2cc1Br (single isomer, unassigned) [Compound 10] | C (a percent of maximum effect of 29% or lower) | C (a percent of maximum effect of 29% or lower)
≤ 100 | < 15 | > 100 | Nc1ccc2ccc([C@H]3C[C@@]4(CO3)C[C@@H](n3ccc5cncnc53)[C@H](O)[C@@H]4O)cc2n1 [Compound 21] | A (a percent of maximum effect of 60% or greater) | B (a percent of maximum effect of 30% to 59%)
≤ 100 |  |  | CC(C)Nc1ncnc2c1ccn2[C@@H]1C[C@@]2(CO[C@@H](c3ccc4cc(Br)c(N)nc4c3)C2)[C@@H](O)[C@H]1O [Compound 25] | B (a percent of maximum effect of 30% to 59%) | C (a percent of maximum effect of 29% or lower)
≤ 100 |  |  | Nc1nc2cc(C3C[C@@]4(CN3)C[C@@H](n3ccc5c(N)ncnc53)[C@H](O)[C@@H]4O)ccc2cc1Br (single isomer, unassigned) [Compound 7] | A (a percent of maximum effect of 60% or greater) | B (a percent of maximum effect of 30% to 59%)
≤ 100 |  |  | Nc1nc2cc(C3C[C@@]4(CO3)C[C@@H](n3ccc5c(Cl)ncnc53)[C@H](O)[C@@H]4O)ccc2cc1Br (stereo partly shown) [Compound 18] | C (a percent of maximum effect of 29% or lower) | C (a percent of maximum effect of 29% or lower)
> 500 |  |  | O[C@H]1[C@H](n2ccc3c(Cl)ncnc32)C[C@@]2(CNC(c3ccc4cc(Br)c(Cl)nc4c3)C2)[C@H]1O (single isomer, unassigned) [Compound 2] | C (a percent of maximum effect of 29% or lower) | C (a percent of maximum effect of 29% or lower)
> 500 |  |  | CN1C[C@]2(CC1c1ccc3cc(Br)c(N)nc3c1)C[C@@H](n1ccc3c(N)ncnc31)[C@H](O)[C@@H]2O (single isomer, unassigned) [Compound 6] | C (a percent of maximum effect of 29% or lower) | C (a percent of maximum effect of 29% or lower)
≤ 100 | < 15 | > 100 | Nc1ccc2ccc([C@H]3C[C@@]4(CO3)C[C@@H](n3ccc5c(Cl)ncnc53)[C@H](O)[C@@H]4O)cc2n1 [Compound 20] | A (a percent of maximum effect of 60% or greater) | B (a percent of maximum effect of 30% to 59%)
> 500 |  |  | O[C@H]1[C@H](n2ccc3c(Cl)ncnc32)C[C@@]2(CNC(c3ccc4cc(Br)c(Cl)nc4c3)C2)[C@H]1O (single isomer, unassigned) [Compound 1] | C (a percent of maximum effect of 29% or lower) | C (a percent of maximum effect of 29% or lower)
≤ 100 |  |  | CCCNc1ncnc2c1ccn2[C@@H]1C[C@@]2(CO[C@@H](c3ccc4cc(Br)c(N)nc4c3)C2)[C@@H](O)[C@H]1O [Compound 26] | B (a percent of maximum effect of 30% to 59%) | B (a percent of maximum effect of 30% to 59%)
